We go through 35 compounds from patent US12091411B2, “IRAK degraders and uses thereof” (Kymera Therapeutics, Inc., priority 2022, dated 2024).

The target of this assay is T1, IRAK4 (Homo sapiens, UniProt Q9NWZ3).
T1 construct: Degradation of IRAK4 in OCI-LY10 was quantitatively measured using Meso Scale Discovery technology; endogenous in cells; host or cells: OCI-LY10
T1 sequence (Q9NWZ3 1-460): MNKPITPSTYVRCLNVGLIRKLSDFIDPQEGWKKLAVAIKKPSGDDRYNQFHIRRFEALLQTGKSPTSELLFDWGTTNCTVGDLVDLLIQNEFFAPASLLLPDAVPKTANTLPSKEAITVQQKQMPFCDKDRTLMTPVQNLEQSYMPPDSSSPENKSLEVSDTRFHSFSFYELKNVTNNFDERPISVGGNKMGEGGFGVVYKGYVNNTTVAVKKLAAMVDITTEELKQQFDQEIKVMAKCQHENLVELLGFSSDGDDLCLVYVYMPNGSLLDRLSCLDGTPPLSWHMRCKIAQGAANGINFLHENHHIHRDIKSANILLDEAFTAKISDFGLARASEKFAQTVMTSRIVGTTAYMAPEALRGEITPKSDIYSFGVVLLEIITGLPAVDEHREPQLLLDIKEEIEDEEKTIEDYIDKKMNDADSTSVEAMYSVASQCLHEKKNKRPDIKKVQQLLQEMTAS
Description: IRAK4 MSD Degradation in OCI-LY10. The format is cell-based. The conditions noted are these: OCI-LY10 cells, MSD. In a few lines: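 OCI-LY10 cells exposed to 8-point 1:3 compound series (top 1 to 10 μM) for 4 to 24 h at 37 °C, 5% CO2. Lysate IRAK4 quantified by MSD sandwich immunoassay. DC50 from three-parameter logistic fit, binned A (<0.01 μM) to D (>0.2 μM or not tested).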

Where [1] appears, read: 4 hrs incubation, read-out: IRAK4 degradation in OCI-LY10 at 4 hrs: DC50.
Setting [2] is: 24 hrs incubation, read-out: IRAK4 degradation in OCI-LY10 at 24 hrs: DC50.

Like-named read-outs stand apart in the source and are kept apart here. Where only a bound is given, the exact number is not on record here.

Turning to `Cc1cccc(C(=O)Nc2cc3cn([C@H]4CC[C@H](CN5CCC(c6cccc7c6n(C)c(=O)n7C6CCC(=O)NC6=O)C(F)(F)C5)CC4)nc3cc2C(C)(C)O)n1` (stereo partly shown) [I-617], the DC50 (commonly the midpoint of the concentration-degradation curve) was > 200 nM under setting [1] and < 10 nM under setting [2].

Consider `Cn1c(=O)n(C2CCC(=O)NC2=O)c2cccc(C3CCN(C[C@H]4CC[C@H](n5cc6cc(NC(=O)c7cccc(C#N)n7)c(C(C)(C)O)cc6n5)CC4)CC3(F)F)c21` (stereo partly shown) [I-618], for which the DC50 runs as follows: under setting [1], > 200 nM; under setting [2], < 10 nM.

In the case of `Cn1c(=O)n(C2CCC(=O)NC2=O)c2cccc(C3CCN(C[C@H]4CC[C@H](n5cc6cc(NC(=O)c7cccc(C(F)F)n7)c(C(C)(C)O)cc6n5)CC4)CC3(F)F)c21` (stereo partly shown) [I-619], the DC50 is > 200 nM under setting [1] and < 10 nM under setting [2].

Consider `Cc1cccc(C(=O)Nc2ccc3nn([C@H]4CC[C@H](CN5CC[C@@H](c6cccc7c6n(C)c(=O)n7C6CCC(=O)NC6=O)[C@@H](F)C5)CC4)cc3c2)n1` (stereo partly shown) [I-620], for which the DC50 is, setting by setting: under setting [1], > 200 nM; under setting [2], > 200 nM.

For the compound `Cc1cccc(C(=O)Nc2ccc3nn([C@H]4CC[C@H](CN5CC[C@@H](c6cccc7c6n(C)c(=O)n7C6CCC(=O)NC6=O)[C@H](F)C5)CC4)cc3c2)n1` (stereo partly shown) [I-621], the DC50 was > 200 nM under setting [1] and > 200 nM under setting [2].

Consider `Cc1cccc(C(=O)Nc2ccc3nn([C@H]4CC[C@H](CN5CC[C@H](c6cccc7c6n(C)c(=O)n7C6CCC(=O)NC6=O)[C@@H](F)C5)CC4)cc3c2)n1` (stereo partly shown) [I-622], for which the DC50 is > 200 nM under setting [1] and > 200 nM under setting [2].

As to `Cc1cccc(C(=O)Nc2ccc3nn([C@H]4CC[C@H](CN5CC[C@H](c6cccc7c6n(C)c(=O)n7C6CCC(=O)NC6=O)[C@H](F)C5)CC4)cc3c2)n1` (stereo partly shown) [I-623], the DC50 is, setting by setting: under setting [1], > 200 nM; under setting [2], > 200 nM.

`Cn1c(=O)n(C2CCC(=O)NC2=O)c2cccc([C@@H]3CCN(C[C@H]4CC[C@H](n5cc6cc(NC(=O)c7cccc(C#N)n7)ccc6n5)CC4)C[C@@H]3F)c21` (stereo partly shown) [I-624]: the DC50 under setting [1] was > 200 nM and the DC50 under setting [2] is > 200 nM.

On to `Cn1c(=O)n(C2CCC(=O)NC2=O)c2cccc([C@@H]3CCN(C[C@H]4CC[C@H](n5cc6cc(NC(=O)c7cccc(C#N)n7)ccc6n5)CC4)C[C@H]3F)c21` (stereo partly shown) [I-625], for which the DC50 under setting [1] is > 200 nM and the DC50 under setting [2] was < 10 nM.

Take `Cn1c(=O)n(C2CCC(=O)NC2=O)c2cccc([C@H]3CCN(C[C@H]4CC[C@H](n5cc6cc(NC(=O)c7cccc(C#N)n7)ccc6n5)CC4)C[C@@H]3F)c21` (stereo partly shown) [I-626]: the DC50 is, setting by setting: under setting [1], > 200 nM; under setting [2], > 200 nM.

As for `Cn1c(=O)n(C2CCC(=O)NC2=O)c2cccc([C@H]3CCN(C[C@H]4CC[C@H](n5cc6cc(NC(=O)c7cccc(C#N)n7)ccc6n5)CC4)C[C@H]3F)c21` (stereo partly shown) [I-627], the DC50 was > 200 nM under setting [1] and > 200 nM under setting [2].

`Cn1c(=O)n(C2CCC(=O)NC2=O)c2cccc([C@@H]3CCN(C[C@H]4CC[C@H](n5cc6cc(NC(=O)c7cccc(C(F)F)n7)ccc6n5)CC4)C[C@@H]3F)c21` (stereo partly shown) [I-628]: the DC50 was > 200 nM under setting [1] and > 200 nM under setting [2].

Consider `Cn1c(=O)n(C2CCC(=O)NC2=O)c2cccc([C@@H]3CCN(C[C@H]4CC[C@H](n5cc6cc(NC(=O)c7cccc(C(F)F)n7)ccc6n5)CC4)C[C@H]3F)c21` (stereo partly shown) [I-629], for which the DC50 runs as follows: under setting [1], > 200 nM; under setting [2], < 10 nM.

`Cn1c(=O)n(C2CCC(=O)NC2=O)c2cccc([C@H]3CCN(C[C@H]4CC[C@H](n5cc6cc(NC(=O)c7cccc(C(F)F)n7)ccc6n5)CC4)C[C@@H]3F)c21` (stereo partly shown) [I-630]: the DC50 is, setting by setting: under setting [1], > 200 nM; under setting [2], > 200 nM.

In the case of `Cn1c(=O)n(C2CCC(=O)NC2=O)c2cccc([C@H]3CCN(C[C@H]4CC[C@H](n5cc6cc(NC(=O)c7cccc(C(F)F)n7)ccc6n5)CC4)C[C@H]3F)c21` (stereo partly shown) [I-631], the DC50 is > 200 nM under setting [1] and > 200 nM under setting [2].

For the compound `Cc1cccc(C(=O)Nc2cc3cn([C@H]4CC[C@H](CN5CC[C@@H](c6cccc7c6n(C)c(=O)n7C6CCC(=O)NC6=O)[C@@H](F)C5)CC4)nc3cn2)n1` (stereo partly shown) [I-632], the DC50 was > 200 nM under setting [1] and > 200 nM under setting [2].

`Cc1cccc(C(=O)Nc2cc3cn([C@H]4CC[C@H](CN5CC[C@@H](c6cccc7c6n(C)c(=O)n7C6CCC(=O)NC6=O)[C@H](F)C5)CC4)nc3cn2)n1` (stereo partly shown) [I-633]: the DC50 by setting is: under setting [1], > 200 nM; under setting [2], < 10 nM.

`Cc1cccc(C(=O)Nc2cc3cn([C@H]4CC[C@H](CN5CC[C@H](c6cccc7c6n(C)c(=O)n7C6CCC(=O)NC6=O)[C@@H](F)C5)CC4)nc3cn2)n1` (stereo partly shown) [I-634]: the DC50 runs as follows: under setting [1], > 200 nM; under setting [2], > 200 nM.

For the compound `Cc1cccc(C(=O)Nc2cc3cn([C@H]4CC[C@H](CN5CC[C@H](c6cccc7c6n(C)c(=O)n7C6CCC(=O)NC6=O)[C@H](F)C5)CC4)nc3cn2)n1` (stereo partly shown) [I-635], the DC50 under setting [1] was > 200 nM and the DC50 under setting [2] was > 200 nM.

Consider `Cn1c(=O)n(C2CCC(=O)NC2=O)c2cccc([C@@H]3CCN(C[C@H]4CC[C@H](n5cc6cc(NC(=O)c7cccc(C#N)n7)ncc6n5)CC4)C[C@@H]3F)c21` (stereo partly shown) [I-636], for which the DC50 by setting is: under setting [1], > 200 nM; under setting [2], > 200 nM.

Turning to `Cn1c(=O)n(C2CCC(=O)NC2=O)c2cccc([C@@H]3CCN(C[C@H]4CC[C@H](n5cc6cc(NC(=O)c7cccc(C#N)n7)ncc6n5)CC4)C[C@H]3F)c21` (stereo partly shown) [I-637], the DC50 by setting is: under setting [1], > 200 nM; under setting [2], < 10 nM.

Take `Cn1c(=O)n(C2CCC(=O)NC2=O)c2cccc([C@H]3CCN(C[C@H]4CC[C@H](n5cc6cc(NC(=O)c7cccc(C#N)n7)ncc6n5)CC4)C[C@@H]3F)c21` (stereo partly shown) [I-638]: the DC50 was > 200 nM under setting [1] and < 10 nM under setting [2].

For `Cn1c(=O)n(C2CCC(=O)NC2=O)c2cccc([C@H]3CCN(C[C@H]4CC[C@H](n5cc6cc(NC(=O)c7cccc(C#N)n7)ncc6n5)CC4)C[C@H]3F)c21` (stereo partly shown) [I-639], the DC50 runs as follows: under setting [1], > 200 nM; under setting [2], > 200 nM.

As for `Cn1c(=O)n(C2CCC(=O)NC2=O)c2cccc([C@@H]3CCN(C[C@H]4CC[C@H](n5cc6cc(NC(=O)c7cccc(C(F)F)n7)ncc6n5)CC4)C[C@@H]3F)c21` (stereo partly shown) [I-640], the DC50 was > 200 nM under setting [1] and > 200 nM under setting [2].

For the compound `Cn1c(=O)n(C2CCC(=O)NC2=O)c2cccc([C@@H]3CCN(C[C@H]4CC[C@H](n5cc6cc(NC(=O)c7cccc(C(F)F)n7)ncc6n5)CC4)C[C@H]3F)c21` (stereo partly shown) [I-641], the DC50 was > 200 nM under setting [1] and < 10 nM under setting [2].

Regarding `Cn1c(=O)n(C2CCC(=O)NC2=O)c2cccc([C@H]3CCN(C[C@H]4CC[C@H](n5cc6cc(NC(=O)c7cccc(C(F)F)n7)ncc6n5)CC4)C[C@@H]3F)c21` (stereo partly shown) [I-642], the DC50 under setting [1] was > 200 nM and the DC50 under setting [2] is > 200 nM.

As for `Cn1c(=O)n(C2CCC(=O)NC2=O)c2cccc([C@H]3CCN(C[C@H]4CC[C@H](n5cc6cc(NC(=O)c7cccc(C(F)F)n7)ncc6n5)CC4)C[C@H]3F)c21` (stereo partly shown) [I-643], the DC50 runs as follows: under setting [1], > 200 nM; under setting [2], > 200 nM.

On to `Cc1cccc(C(=O)Nc2cc3cn([C@H]4CC[C@H](CN5CC[C@@H](c6cccc7c6n(C)c(=O)n7C6CCC(=O)NC6=O)[C@@H](F)C5)CC4)nc3cc2C(C)(C)O)n1` (stereo partly shown) [I-644], for which the half-maximal degradation concentration (DC50) under setting [1] was > 200 nM and the DC50 under setting [2] is > 200 nM.

For `Cc1cccc(C(=O)Nc2cc3cn([C@H]4CC[C@H](CN5CC[C@@H](c6cccc7c6n(C)c(=O)n7C6CCC(=O)NC6=O)[C@H](F)C5)CC4)nc3cc2C(C)(C)O)n1` (stereo partly shown) [I-645], the DC50 runs as follows: under setting [1], > 200 nM; under setting [2], < 10 nM.

`Cc1cccc(C(=O)Nc2cc3cn([C@H]4CC[C@H](CN5CC[C@H](c6cccc7c6n(C)c(=O)n7C6CCC(=O)NC6=O)[C@@H](F)C5)CC4)nc3cc2C(C)(C)O)n1` (stereo partly shown) [I-646]: the DC50 is, setting by setting: under setting [1], > 200 nM; under setting [2], > 200 nM.

For the compound `Cc1cccc(C(=O)Nc2cc3cn([C@H]4CC[C@H](CN5CC[C@H](c6cccc7c6n(C)c(=O)n7C6CCC(=O)NC6=O)[C@H](F)C5)CC4)nc3cc2C(C)(C)O)n1` (stereo partly shown) [I-647], the DC50 is, setting by setting: under setting [1], > 200 nM; under setting [2], > 200 nM.

In the case of `Cn1c(=O)n(C2CCC(=O)NC2=O)c2cccc([C@@H]3CCN(C[C@H]4CC[C@H](n5cc6cc(NC(=O)c7cccc(C#N)n7)c(C(C)(C)O)cc6n5)CC4)C[C@@H]3F)c21` (stereo partly shown) [I-648], the DC50 reads like this: under setting [1], > 200 nM; under setting [2], > 200 nM.

For the compound `Cn1c(=O)n(C2CCC(=O)NC2=O)c2cccc([C@@H]3CCN(C[C@H]4CC[C@H](n5cc6cc(NC(=O)c7cccc(C#N)n7)c(C(C)(C)O)cc6n5)CC4)C[C@H]3F)c21` (stereo partly shown) [I-649], the DC50 is > 200 nM under setting [1] and < 10 nM under setting [2].

Turning to `Cn1c(=O)n(C2CCC(=O)NC2=O)c2cccc([C@H]3CCN(C[C@H]4CC[C@H](n5cc6cc(NC(=O)c7cccc(C#N)n7)c(C(C)(C)O)cc6n5)CC4)C[C@@H]3F)c21` (stereo partly shown) [I-650], the DC50 was > 200 nM under setting [1] and > 200 nM under setting [2].

As for `Cn1c(=O)n(C2CCC(=O)NC2=O)c2cccc([C@H]3CCN(C[C@H]4CC[C@H](n5cc6cc(NC(=O)c7cccc(C#N)n7)c(C(C)(C)O)cc6n5)CC4)C[C@H]3F)c21` (stereo partly shown) [I-651], the DC50 was > 200 nM under setting [1] and > 200 nM under setting [2].
